Measurements published in US9095617B2, “Surgical adjuvant composition and associated methods of use” (Soteria Industries, Inc., priority 2010, dated 2015).

System: Bovine chondrocytes
Experiment: Viability of isolated chondrocytes suspended 12 hrs at 37° C. in various solutions (membrane integrity dyes)
Format: cell-based
Details: bupivacaine 1.25 mg/mL [0.125%]
Description: FIG. 7: Bovine chondrocytes suspended for 12 hrs. at 37° C. in various solutions of phosphate buffered saline (PBS), bupivacaine (1.25 mg/mL [0.125%]), arthroguard and saline. In these experiments, 2.5 mg/mL [0.25%] bupivacaine was combined with arthroguard to yield a final concentration of 1.25 mg/mL [0.125%] bupivacaine in arthroguard. for 12 hrs. Cell viability is assessed by membrane integrity dyes.

## CCCCN1CCCCC1C(=O)Nc1c(C)cccc1C (stereo not shown) [bupivicaine, bupivacaine]
  amount of cell death of isolated chondrocytes exposed to bupivicaine: increases the amount of cell death
